Experimental data taken from US20240246942A1, “KINASE INHIBITORS FOR THE TREATMENT OF NEURODEGENERATIVE DISEASES” (priority 2020, published 2024).

Assays:
Experiment in all cases: biochemical
[1] = target: T1, panel of 374 wild-type kinases (Homo sapiens, UniProt O95382); conditions: read-out: % Enzyme Activity (relative to DMSO controls), MEKK6
T1 construct: purchased Reaction Biology Corporation
T1 sequence (O95382 1-1288): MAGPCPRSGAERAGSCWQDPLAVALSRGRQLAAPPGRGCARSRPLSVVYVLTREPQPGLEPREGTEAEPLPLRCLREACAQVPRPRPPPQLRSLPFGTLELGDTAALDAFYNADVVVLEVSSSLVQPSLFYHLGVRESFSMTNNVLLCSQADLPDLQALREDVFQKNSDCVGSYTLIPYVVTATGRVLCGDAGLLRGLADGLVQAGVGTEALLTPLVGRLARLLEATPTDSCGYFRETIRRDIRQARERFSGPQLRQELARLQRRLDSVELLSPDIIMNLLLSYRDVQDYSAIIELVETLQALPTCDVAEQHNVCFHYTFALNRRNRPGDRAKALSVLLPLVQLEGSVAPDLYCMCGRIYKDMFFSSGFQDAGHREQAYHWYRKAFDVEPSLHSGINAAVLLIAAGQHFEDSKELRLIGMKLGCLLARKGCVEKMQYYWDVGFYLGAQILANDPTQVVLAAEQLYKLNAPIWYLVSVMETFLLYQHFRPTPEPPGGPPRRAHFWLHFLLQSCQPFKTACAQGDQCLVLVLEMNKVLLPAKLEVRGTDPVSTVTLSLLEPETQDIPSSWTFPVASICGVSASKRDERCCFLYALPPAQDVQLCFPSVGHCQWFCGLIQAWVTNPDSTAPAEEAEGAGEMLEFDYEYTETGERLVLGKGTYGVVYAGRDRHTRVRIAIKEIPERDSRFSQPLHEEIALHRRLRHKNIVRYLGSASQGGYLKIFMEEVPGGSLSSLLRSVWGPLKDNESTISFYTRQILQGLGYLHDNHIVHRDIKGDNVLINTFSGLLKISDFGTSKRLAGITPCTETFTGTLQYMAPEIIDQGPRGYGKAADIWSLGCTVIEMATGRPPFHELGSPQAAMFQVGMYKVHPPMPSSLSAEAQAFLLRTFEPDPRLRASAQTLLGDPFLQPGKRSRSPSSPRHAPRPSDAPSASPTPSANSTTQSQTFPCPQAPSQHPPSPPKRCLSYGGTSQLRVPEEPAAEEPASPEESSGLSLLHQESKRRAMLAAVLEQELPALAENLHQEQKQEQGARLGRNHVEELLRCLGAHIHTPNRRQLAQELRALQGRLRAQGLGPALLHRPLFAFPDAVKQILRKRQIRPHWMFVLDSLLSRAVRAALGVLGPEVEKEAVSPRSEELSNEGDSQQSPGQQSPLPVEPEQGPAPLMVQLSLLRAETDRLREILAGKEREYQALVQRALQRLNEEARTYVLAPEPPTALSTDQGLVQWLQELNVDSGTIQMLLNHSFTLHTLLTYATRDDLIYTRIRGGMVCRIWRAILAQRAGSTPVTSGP

[2] = target: T2, panel of 374 wild-type kinases (Homo sapiens, UniProt P08922); conditions: read-out: % Enzyme Activity (relative to DMSO controls), kinase ROS/ROS1
T2 construct: purchased Reaction Biology Corporation

[3] = target: T3, panel of 374 wild-type kinases (Homo sapiens, UniProt O75385); conditions: read-out: % Enzyme Activity (relative to DMSO controls), kinase ULK1
T3 construct: purchased Reaction Biology Corporation
T3 sequence (O75385 1-1050): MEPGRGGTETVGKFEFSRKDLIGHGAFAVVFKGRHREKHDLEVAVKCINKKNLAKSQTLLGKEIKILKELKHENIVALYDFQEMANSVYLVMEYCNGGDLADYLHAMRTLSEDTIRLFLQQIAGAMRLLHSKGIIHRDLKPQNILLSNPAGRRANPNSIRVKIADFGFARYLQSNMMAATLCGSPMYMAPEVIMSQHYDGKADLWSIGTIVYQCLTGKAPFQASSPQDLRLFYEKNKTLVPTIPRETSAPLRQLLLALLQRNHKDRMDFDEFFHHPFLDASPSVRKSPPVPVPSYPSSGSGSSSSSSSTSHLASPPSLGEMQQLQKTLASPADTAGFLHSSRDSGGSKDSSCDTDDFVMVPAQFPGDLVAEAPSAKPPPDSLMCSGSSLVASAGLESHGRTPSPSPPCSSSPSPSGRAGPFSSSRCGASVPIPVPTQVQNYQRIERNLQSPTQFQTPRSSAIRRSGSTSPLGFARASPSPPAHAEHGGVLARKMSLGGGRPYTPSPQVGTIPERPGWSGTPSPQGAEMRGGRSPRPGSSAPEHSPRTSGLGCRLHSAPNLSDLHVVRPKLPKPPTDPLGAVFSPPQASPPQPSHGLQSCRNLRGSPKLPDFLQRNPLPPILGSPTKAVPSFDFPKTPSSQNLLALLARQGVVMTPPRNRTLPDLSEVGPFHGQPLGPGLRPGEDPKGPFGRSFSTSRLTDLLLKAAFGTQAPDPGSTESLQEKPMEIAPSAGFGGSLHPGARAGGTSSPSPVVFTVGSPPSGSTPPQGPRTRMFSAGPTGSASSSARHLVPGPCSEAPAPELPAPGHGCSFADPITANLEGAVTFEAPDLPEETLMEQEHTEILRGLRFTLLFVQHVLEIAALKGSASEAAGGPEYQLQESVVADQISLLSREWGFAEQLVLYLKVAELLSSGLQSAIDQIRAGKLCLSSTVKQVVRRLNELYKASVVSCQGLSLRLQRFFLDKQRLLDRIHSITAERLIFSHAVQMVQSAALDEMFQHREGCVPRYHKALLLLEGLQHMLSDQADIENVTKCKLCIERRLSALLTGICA

T2 sequence (P08922 28-2347): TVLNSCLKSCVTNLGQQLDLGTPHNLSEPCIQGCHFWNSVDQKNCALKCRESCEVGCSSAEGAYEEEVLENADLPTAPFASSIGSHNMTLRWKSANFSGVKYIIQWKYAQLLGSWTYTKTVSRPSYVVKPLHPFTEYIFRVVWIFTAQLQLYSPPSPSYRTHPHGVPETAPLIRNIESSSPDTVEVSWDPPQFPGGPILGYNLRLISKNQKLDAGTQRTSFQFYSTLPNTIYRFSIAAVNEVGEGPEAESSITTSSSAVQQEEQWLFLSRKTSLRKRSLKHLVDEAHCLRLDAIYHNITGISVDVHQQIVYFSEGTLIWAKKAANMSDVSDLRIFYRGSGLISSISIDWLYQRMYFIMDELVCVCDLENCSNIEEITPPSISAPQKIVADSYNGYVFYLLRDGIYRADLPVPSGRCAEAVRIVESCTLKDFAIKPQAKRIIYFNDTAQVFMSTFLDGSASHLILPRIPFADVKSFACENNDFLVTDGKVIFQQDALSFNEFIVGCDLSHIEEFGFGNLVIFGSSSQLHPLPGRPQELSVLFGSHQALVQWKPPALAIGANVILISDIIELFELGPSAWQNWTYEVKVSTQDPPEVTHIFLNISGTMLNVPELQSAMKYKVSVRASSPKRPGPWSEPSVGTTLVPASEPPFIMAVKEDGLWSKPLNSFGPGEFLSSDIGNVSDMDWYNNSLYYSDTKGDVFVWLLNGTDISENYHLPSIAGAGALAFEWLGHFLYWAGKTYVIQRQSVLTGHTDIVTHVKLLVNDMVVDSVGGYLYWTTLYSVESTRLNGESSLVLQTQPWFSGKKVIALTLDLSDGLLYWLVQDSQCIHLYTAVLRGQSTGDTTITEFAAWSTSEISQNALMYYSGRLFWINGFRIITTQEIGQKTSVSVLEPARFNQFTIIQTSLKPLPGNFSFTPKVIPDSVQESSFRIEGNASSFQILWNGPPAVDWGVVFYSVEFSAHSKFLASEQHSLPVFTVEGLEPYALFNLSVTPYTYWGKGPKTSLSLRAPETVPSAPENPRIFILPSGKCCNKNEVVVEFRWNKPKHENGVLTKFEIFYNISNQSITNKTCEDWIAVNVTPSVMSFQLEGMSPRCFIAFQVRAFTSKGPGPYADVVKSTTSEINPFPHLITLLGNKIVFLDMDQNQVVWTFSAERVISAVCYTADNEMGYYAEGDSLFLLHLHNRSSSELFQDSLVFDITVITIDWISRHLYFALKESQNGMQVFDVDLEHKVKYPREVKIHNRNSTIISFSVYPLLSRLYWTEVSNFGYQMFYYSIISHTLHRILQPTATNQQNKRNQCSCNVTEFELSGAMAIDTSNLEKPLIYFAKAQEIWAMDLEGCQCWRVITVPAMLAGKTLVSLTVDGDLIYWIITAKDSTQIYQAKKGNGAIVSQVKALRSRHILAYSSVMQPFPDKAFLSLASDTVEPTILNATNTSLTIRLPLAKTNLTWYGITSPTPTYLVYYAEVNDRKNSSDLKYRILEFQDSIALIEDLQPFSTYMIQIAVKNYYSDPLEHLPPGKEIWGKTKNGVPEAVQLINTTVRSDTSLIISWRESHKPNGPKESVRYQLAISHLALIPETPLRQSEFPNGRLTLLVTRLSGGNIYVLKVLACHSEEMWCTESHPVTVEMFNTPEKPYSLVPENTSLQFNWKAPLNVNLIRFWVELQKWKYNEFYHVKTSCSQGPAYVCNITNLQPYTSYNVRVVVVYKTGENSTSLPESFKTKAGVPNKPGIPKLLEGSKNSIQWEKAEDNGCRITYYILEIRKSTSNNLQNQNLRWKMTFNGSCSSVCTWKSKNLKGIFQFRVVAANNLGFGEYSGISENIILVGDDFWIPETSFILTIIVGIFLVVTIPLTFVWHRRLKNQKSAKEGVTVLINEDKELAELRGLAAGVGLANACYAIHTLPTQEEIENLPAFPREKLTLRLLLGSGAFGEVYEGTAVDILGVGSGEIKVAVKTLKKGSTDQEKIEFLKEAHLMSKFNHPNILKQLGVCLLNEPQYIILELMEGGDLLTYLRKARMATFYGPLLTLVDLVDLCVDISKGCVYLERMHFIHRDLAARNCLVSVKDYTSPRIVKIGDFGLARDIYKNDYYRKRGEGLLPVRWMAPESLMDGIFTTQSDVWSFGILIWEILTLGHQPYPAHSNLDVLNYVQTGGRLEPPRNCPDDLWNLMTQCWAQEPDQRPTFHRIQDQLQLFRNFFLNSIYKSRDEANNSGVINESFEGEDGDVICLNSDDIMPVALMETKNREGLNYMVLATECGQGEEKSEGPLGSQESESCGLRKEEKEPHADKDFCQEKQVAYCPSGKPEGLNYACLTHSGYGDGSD

Structure (SMILES)	remaining activity at 5 µM [1] [%]	remaining activity at 5 µM [2] [%]	remaining activity at 5 µM [3] [%]	remaining activity at 10 µM ([1]; 10 uM) [%]	remaining activity at 10 µM ([2]; 10 uM) [%]	remaining activity at 10 µM ([3]; 10 uM) [%]
O=C(Nc1cnn(-c2csc(C(=O)NC3COC3)c2)c1)Nc1ccccc1Cl [Compound 17, 4-(4-(3-(2-chlorophenyl)ureido)-1H-pyrazol-1-yl)-N-(oxetan-3-yl)thiophene-2-carboxamide]	98.8	103	134	–	–	–
O=C(Nc1cnn(-c2csc(C(=O)NC3COC3)c2)c1)Nc1c(F)cccc1Cl [Compound 25, 4-(4-(3-(2-chloro-6-fluorophenyl)ureido)-1H-pyrazol-1-yl)-N-(oxetan-3-yl)thiophene-2-carboxamide]	92.5	85.5	93.9	–	–	–
Cc1sc(C(=O)NC2COC2)cc1-n1cc(NC(=O)Nc2c(F)cccc2Cl)cn1 [Compound 27, 4-(4-(3-(2-chloro-6-fluorophenyl)ureido)-1H-pyrazol-1-yl)-5-methyl-N-(oxetan-3-yl)thiophene-2-carboxamide]	–	–	–	79.3	102	77.3
